Experiment [1] has as its target T1, Smoothened (SMO) (Homo sapiens, UniProt Q99835, Y394F).
T1 construct: purified Y394F SMO
The experiment can be described thus: pull-down of purified Y394F SMO on biotinylated cholesterol beads. It counts as binding.

Experiment [2] addresses T2, Smoothened (SMO) (Homo sapiens, UniProt Q99835, L112A).
T2 construct: purified L112A SMO; also the L112A CRD fragment
The experiment can be described thus: pull-down of purified L112A SMO or CRD on biotinylated cholesterol beads. It counts as binding.

The target in experiment [3] is T1, Smoothened (SMO). The experiment can be described thus: free cortisol competes with biotinylated cholesterol beads for purified Y394F SMO. It counts as binding.
Experiment [4] addresses T3, Smoothened (SMO) (Homo sapiens, UniProt Q99835).
T3 construct: full-length SMO expressed in HeLa cells
In words: Asp-evoked current in HeLa cells expressing WT SMO; effect lost with L112A. It counts as cell-based.

Data on three compounds can be found in paper PMC11743026, “Cortisol regulates neonatal lung development via Smoothened” (Respiratory Research, 2025).

T1 sequence (Q99835 28-787 Y394F): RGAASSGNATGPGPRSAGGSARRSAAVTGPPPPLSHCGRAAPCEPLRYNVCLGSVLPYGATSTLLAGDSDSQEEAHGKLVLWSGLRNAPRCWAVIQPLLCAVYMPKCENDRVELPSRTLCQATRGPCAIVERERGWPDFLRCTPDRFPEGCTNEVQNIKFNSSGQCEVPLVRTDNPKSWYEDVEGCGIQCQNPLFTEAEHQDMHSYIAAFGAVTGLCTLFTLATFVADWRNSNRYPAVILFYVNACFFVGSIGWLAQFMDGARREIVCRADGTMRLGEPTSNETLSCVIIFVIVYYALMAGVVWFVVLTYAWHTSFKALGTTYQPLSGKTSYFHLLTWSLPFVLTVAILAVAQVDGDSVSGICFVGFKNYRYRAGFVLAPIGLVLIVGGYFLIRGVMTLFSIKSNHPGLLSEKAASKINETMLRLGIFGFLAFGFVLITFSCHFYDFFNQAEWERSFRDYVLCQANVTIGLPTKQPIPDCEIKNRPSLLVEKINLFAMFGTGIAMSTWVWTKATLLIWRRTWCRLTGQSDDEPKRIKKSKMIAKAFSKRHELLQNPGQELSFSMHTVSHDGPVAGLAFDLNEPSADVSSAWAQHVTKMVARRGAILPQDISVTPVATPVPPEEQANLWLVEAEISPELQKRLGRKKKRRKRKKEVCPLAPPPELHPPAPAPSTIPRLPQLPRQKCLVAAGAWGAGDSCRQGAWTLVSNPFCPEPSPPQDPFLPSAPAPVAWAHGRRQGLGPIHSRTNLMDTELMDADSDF
T3 sequence (Q99835 28-787): as the sequence (Q99835 28-787 Y394F) above, with F367Y counted along it
T2 sequence (Q99835 28-787 L112A): as the sequence (Q99835 28-787 Y394F) above, with L85A, F367Y counted along it

As to `CC(C)CCC[C@@H](C)[C@H]1CC[C@H]2[C@@H]3CC=C4C[C@@H](O)CC[C@]4(C)[C@H]3CC[C@]12C` [Chol, cholesterol], in experiment [1], the “pull-down of purified Y394F SMO on biotinylated cholesterol beads” value is on record as “mutation of the Y394 to F394 did not change CB binding to the SMO”. In experiment [2], the “pull-down of purified L112A SMO or CRD on biotinylated cholesterol beads” value was “The CB remained binding to the purified WT and L112A SMO”. For `C[C@]12CCC(=O)C=C1CC[C@@H]1[C@@H]2[C@@H](O)C[C@@]2(C)[C@H]1CC[C@]2(O)C(=O)CO` [Cort, cortisol], the “free cortisol competes with biotinylated cholesterol beads for purified Y394F SM” value in experiment [3] is on record as “cortisol remained inhibiting the CB binding to the mutated SMO in a dose-dependent manner”.

Turning to `C[C@]12C[C@H](O)[C@H]3[C@@H](CCC4=CC(=O)CC[C@@]43C)[C@@H]1CC[C@@H]2C(=O)CO` [corticosterone], in experiment [4], the “Asp-evoked current in HeLa cells expressing WT SMO; effect lost with L112A” value is recorded as “The corticosterone inhibition was not observed in the L112A mutant SMO cells”.
